Laboratory results reported in US11485736B2 (KSQ Therapeutics, Inc., priority 2018, dated 2022).
Where two headings read alike, the source gives them in different places.

Key:
USP1/UAF1 = USP1/UAF1 (Homo sapiens (Human), UniProt O94782); assay: Deubiquitination assay for USP1/UAF1 activity (ubiquitin-rhodamine 110); assay type: biochemical; conditions: 0.05 nM USP1/UAF1, 150 nM ubiquitin-rhodamine
Procedure: Certain Compounds of the Disclosure were assessed for USP1/UAF1 activity in a Ubiquitin Rhodamine assay modified from those described previously.
Deubiquitinase activity was measured using ubiquitin-rhodamine 110 as a substrate. Cleavage of the amide bond between rhodamine and the c-terminal glycine of ubiquitin yields an increase in fluorescence signal. The assay was conducted in 20 ul total volume of assay buffer (50 mM Tris-HCl, pH 7.8, 0.5 mM EDTA, 0.01% Bovine Serum Albumin, 1 mM DTT, 0.01% Tween-20), and 0.05 nM USP1/UAF1 enzyme.
Compounds, dissolved in DMSO were tested in dose response format, beginning at 10 uM.
Compounds depicted below were added to enzyme/assay buffer mix and incubated 10 min.
Data for all assay formats was calculated as percent inhibition compared with control wells. […] IC50 values were calculated using the standard four parameter curve fitting algorithm in either Prism GraphPad (La Jolla, Calif.) software, or Collaborative Drug Discovery (Burlingame, Calif.) CDD Vault.

[1] = ADME solubility determination at pH 2.0 and pH 7.4; assay type: physicochemical; conditions: aqueous buffer, thermodynamic from solid, LC-MS/MS
Outline: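 Dried residues of 10 mM DMSO stocks were shaken in PBS pH 7.4 or pH 2.0 for 24 hours at 25° C. and 1,100 rpm. After centrifugation, supernatants were quantified by LC-MS/MS against a standard of known concentration, applying a dilution factor.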

[2] = Liver microsomal stability, human liver microsomes; assay type: in vitro ADME; conditions: 1 μM compound, NADPH, read-out: t1/2 (min) in HLM
Outline: (§1)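 Compound (1 μM final) was incubated with prewarmed human or rat liver microsomes (1 mg/mL in 100 mM phosphate master mix) plus NADPH; aliquots at 0.5–30 minutes were quenched in cold acetonitrile and quantified by LC-MS/MS. Half-life came from the ln(% remaining) versus time slope, converted to CLint (μL/min/mg prot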

[3] = Liver microsomal stability, rat liver microsomes; assay type: in vitro ADME; conditions: 1 μM compound, NADPH, read-out: t1/2 (min) in RLM
Outline: as §1

[4] = PBS pH 2.0, shaken at 25° C. for 24 hours, read-out: Solubility at pH 2.0
[5] = PBS pH 7.4, shaken at 25° C. for 24 hours, read-out: Solubility at pH 7.4

Chain of USP1/UAF1 (O94782 whole entry): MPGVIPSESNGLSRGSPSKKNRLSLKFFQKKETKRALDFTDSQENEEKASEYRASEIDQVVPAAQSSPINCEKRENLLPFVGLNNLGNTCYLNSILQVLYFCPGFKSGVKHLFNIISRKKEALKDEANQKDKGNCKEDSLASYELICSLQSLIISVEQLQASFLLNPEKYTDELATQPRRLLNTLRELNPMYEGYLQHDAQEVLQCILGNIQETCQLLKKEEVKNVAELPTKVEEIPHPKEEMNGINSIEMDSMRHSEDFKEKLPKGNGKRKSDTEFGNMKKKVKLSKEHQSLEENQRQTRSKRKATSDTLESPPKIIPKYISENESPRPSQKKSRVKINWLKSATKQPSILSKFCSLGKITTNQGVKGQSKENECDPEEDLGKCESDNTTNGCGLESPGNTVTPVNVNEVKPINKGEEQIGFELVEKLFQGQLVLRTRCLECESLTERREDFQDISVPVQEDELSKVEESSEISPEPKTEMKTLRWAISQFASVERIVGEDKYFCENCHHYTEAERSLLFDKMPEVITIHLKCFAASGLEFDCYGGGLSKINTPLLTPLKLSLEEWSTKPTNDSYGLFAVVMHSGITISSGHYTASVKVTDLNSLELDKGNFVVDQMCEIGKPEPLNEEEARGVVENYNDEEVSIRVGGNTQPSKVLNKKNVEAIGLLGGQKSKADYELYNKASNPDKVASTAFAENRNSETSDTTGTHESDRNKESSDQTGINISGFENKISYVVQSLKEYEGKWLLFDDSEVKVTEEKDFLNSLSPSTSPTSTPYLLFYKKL
Chain of USP1/UAF1 (Q8TAF3 whole entry partner): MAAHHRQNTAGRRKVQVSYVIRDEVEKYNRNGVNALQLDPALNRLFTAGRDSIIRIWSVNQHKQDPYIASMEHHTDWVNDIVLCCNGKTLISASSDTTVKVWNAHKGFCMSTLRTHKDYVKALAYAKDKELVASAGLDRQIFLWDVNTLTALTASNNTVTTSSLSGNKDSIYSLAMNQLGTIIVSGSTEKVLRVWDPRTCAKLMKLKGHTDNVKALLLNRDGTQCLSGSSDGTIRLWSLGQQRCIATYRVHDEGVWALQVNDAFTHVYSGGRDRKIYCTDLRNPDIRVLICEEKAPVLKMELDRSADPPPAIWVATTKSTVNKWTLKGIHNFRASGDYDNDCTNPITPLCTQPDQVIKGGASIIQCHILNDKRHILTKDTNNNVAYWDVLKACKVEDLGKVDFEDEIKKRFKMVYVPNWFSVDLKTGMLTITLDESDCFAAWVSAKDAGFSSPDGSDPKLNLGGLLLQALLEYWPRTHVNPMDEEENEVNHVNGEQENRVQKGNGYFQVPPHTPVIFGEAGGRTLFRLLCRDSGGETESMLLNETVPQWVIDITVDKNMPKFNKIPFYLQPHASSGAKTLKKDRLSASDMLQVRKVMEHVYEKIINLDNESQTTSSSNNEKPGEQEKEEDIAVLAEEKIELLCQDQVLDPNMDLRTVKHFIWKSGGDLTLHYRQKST

| Compound | IC50 (USP1/UAF1; Table 3) | IC50 (USP1/UAF1; Table 4) | solubility at 24 h [1, 4] | solubility at 24 h [1, 5] | half-life at 1 μM [2] | half-life at 1 μM [3] |
| --- | --- | --- | --- | --- | --- | --- |
| COCCOc1ncnc(C2CC2)c1-c1ncc2cnn(Cc3ccc(-n4nc(C(F)(F)F)cc4C)cc3)c2n1 [drawing 781] | 100 to 200 nM |  |  |  |  |  |
| CCn1cc(C(F)(F)F)nc1-c1ccc(Cn2nc(OC3CCC3)c3cnc(-c4c(OC)ncnc4C4CC4)nc32)cc1 [drawing 806] |  | 10 to 100 nM |  |  |  |  |
| COc1ncnc(C2CC2)c1-c1ncc2cnn(Cc3ccc(-n4nc(C(F)(F)F)cc4OC)cc3)c2n1 [drawing 737] | 10 to 100 nM |  |  |  |  |  |
| COc1ncnc(C2CC2)c1-c1ncc2cnn(Cc3ccc(-n4nc(C(F)(F)F)cc4OC)nc3)c2n1 [drawing 768] | 10 to 100 nM |  |  |  |  |  |
| CCn1cc(C(F)(F)F)nc1-c1ccc(Cn2ncc3cnc(-c4c(OC)cnn4C4CC4)nc32)cc1 [drawing 761] | 10 to 100 nM |  |  |  |  |  |
| COc1ncnc(C2CC2)c1-c1ncc2c(OC)nn([C@@H](C)c3ccc(-c4nc(C(F)(F)F)c(Br)n4C)cc3)c2n1 [drawing 802] |  | 10 to 100 nM |  |  |  |  |
| CCn1cc(C(F)(F)F)nc1-c1ccc(Cn2ncc3cnc(-c4c(OC)ncnc4OC4CC4)nc32)cc1 [Example 114] |  |  | > 10 µM | > 10 µM | < 25 min | < 25 min |
| COc1ncnc(C2CC2)c1-c1ncc2cnn(Cc3ccc(-n4nc(C(F)(F)F)cc4OC)cc3)c2n1 [Example 37] |  |  | < 10 µM | < 10 µM | > 25 min | > 25 min |
| COc1ncnc(C2CC2)c1-c1ncc2cnn(Cc3ccc(-c4nc(C(F)(F)F)cn4C4CC4)cc3)c2n1 [Example 154, 1-(4-(1-Cyclopropyl-4-(trifluoromethyl)-1H-imidazol-2-yl)benzyl)-6-(4-cyclopropyl-6-methoxypyrimidin-5-yl)-1H-pyrazolo[3,4-d]pyrimidine] |  |  | < 10 µM | < 10 µM | > 25 min | > 25 min |
| COc1ncnc(C2CC2)c1-c1ncc2cnn(Cc3ccc(-c4nc(C(F)(F)F)cn4C4CCC4)cc3)c2n1 [Example 144] |  |  | < 10 µM | < 10 µM | > 25 min | < 25 min |
| CCn1cc(C(F)(F)F)nc1-c1ccc([C@@H](C)n2ncc3cnc(-c4c(OC)ncnc4C4CCC4)nc32)cc1 (single isomer, unassigned) [Example 100] |  |  | > 10 µM | < 10 µM | < 25 min | < 25 min |
| COc1ncnc(C2CCC2)c1-c1ncc2cnn(Cc3ccc(-c4nc(C(F)(F)F)cn4C)cc3)c2n1 [Example 15] |  |  | > 10 µM | > 10 µM | < 25 min | < 25 min |
| COc1cccc(C)c1-c1ncc2cnn(Cc3ccc(-c4nc(C(F)(F)F)cn4C)cc3)c2n1 [Example 5, 6-(2-methoxy-6-methylphenyl)-1-(4-(1-methyl-4-(trifluoromethyl)-1H-imidazol-2-yl)benzyl)-1H-pyrazolo[3,4-d]pyrimidine] |  |  | > 10 µM | < 10 µM | < 25 min | < 25 min |
| CSc1cccc(C)c1-c1ncc2cnn(Cc3ccc(-c4nc(C(F)(F)F)cn4C)cc3)c2n1 [Example 21] |  |  | < 10 µM | < 10 µM | < 25 min | < 25 min |
| COc1ncnc(C2CC2)c1-c1ncc2cnn(Cc3ccc(-c4cn(C)c(C(F)(F)F)n4)cc3)c2n1 [Example 13] |  |  | < 10 µM | < 10 µM | > 25 min | > 25 min |
| CCn1cc(C(F)(F)F)nc1-c1ccc(Cn2nc(Br)c3cnc(-c4c(OC)ncnc4C4CC4)nc32)cc1 [Example 170, 3-bromo-6-(4-cyclopropyl-6-methoxypyrimidin-5-yl)-1-(4-(1-ethyl-4-(trifluoromethyl)-1H-imidazol-2-yl)benzyl)-1H-pyrazolo[3,4-d]pyrimidine] |  |  | < 10 µM | < 10 µM | > 25 min | < 25 min |
| COc1ncnc(C2CC2)c1-c1ncc2cnn(Cc3ccc(-c4nc(C(F)(F)F)nn4C(C)C)cc3)c2n1 [Example 58] |  |  | < 10 µM | < 10 µM | > 25 min | > 25 min |

| Compound | IC50 (USP1/UAF1; Table 3) | IC50 (USP1/UAF1; Table 4) | solubility at 24 h [1, 4] | solubility at 24 h [1, 5] | half-life at 1 μM [2] | half-life at 1 μM [3] |
| --- | --- | --- | --- | --- | --- | --- |
| COc1ncnc(C2CC2)c1-c1ncc2cnn(Cc3ccc(-c4cn(C(C)C)c(C(F)(F)F)n4)cc3)c2n1 [Example 34] |  |  | < 10 µM | < 10 µM | > 25 min | > 25 min |
| COc1ncnc(C(C)C)c1-c1ncc2cnn(Cc3ccc(-c4nc(C(F)(F)F)cn4C(C)C)cc3)c2n1 [Example 119] |  |  | < 10 µM | > 10 µM | > 25 min | > 25 min |
| COc1ncnc(C2CC2)c1-c1ncc2nc(C(C)C)n(Cc3ccc(-n4nc(C(F)(F)F)cc4C)cc3)c2n1 [Example 212] |  |  | < 10 µM | < 10 µM | > 25 min | > 25 min |
| CCn1cc(C(F)(F)F)nc1-c1ccc(Cn2nc(C)c3cnc(-c4c(OC)ncnc4C4CC4)nc32)cc1 [Example 187, 6-(4-cyclopropyl-6-methoxypyrimidin-5-yl)-1-(4-(1-ethyl-4-(trifluoromethyl)-1H-imidazol-2-yl)benzyl)-3-methyl-1H-pyrazolo[3,4-d]pyrimidine] |  |  | < 10 µM | < 10 µM | > 25 min | < 25 min |
| CCn1cc(C(F)(F)F)nc1-c1ccc(Cn2ncc3c(OC)nc(-c4c(OC)ncnc4C4CC4)nc32)cc1 [Example 52] |  |  | < 10 µM | < 10 µM | > 25 min | < 25 min |
| CC(C)c1ccccc1-c1ncc2cnn(Cc3ccc(-c4nc(C(F)(F)F)cn4C)cc3)c2n1 [Example 1, 6-(2-isopropylphenyl)-1-(4-(1-methyl-4-(trifluoromethyl)-1H-imidazol-2-yl)benzyl)-1H-pyrazolo[3,4-d]pyrimidine] |  |  | < 10 µM | < 10 µM | < 25 min | < 25 min |
| COc1ncnc(C2CC2)c1-c1ncc2cnn(Cc3ccc(-c4nc(C(F)(F)F)cn4C)c(F)c3)c2n1 [Example 17] |  |  | < 10 µM | < 10 µM | > 25 min | > 25 min |
| COc1ncnc(C2CC2)c1-c1ncc2ncn(Cc3ccc(-n4nc(C(F)(F)F)cc4C)cc3)c2n1 [Example 210] |  |  | > 10 µM | > 10 µM | > 25 min | > 25 min |
| COc1ncnc(C2CC2)c1-c1ncc2ccn(Cc3ccc(-c4nc(C(F)(F)F)cn4C)cc3)c2n1 [Example 201, 2-(4-cyclopropyl-6-methoxypyrimidin-5-yl)-7-(4-(1-methyl-4-(trifluoromethyl)-1H-imidazol-2-yl)benzyl)-7H-pyrrolo[2,3-d]pyrimidine] |  |  | > 10 µM | < 10 µM | < 25 min | < 25 min |
| Cc1cnn(C(C)C)c1-c1ncc2cnn(Cc3ccc(-n4nc(C(F)(F)F)cc4C)cc3)c2n1 [Example 44] |  |  | < 10 µM | < 10 µM | < 25 min | < 25 min |
| CCn1cc(C(F)(F)F)nc1-c1ccc([C@H](C)n2ncc3cnc(-c4c(OC)ncnc4C4CCC4)nc32)cc1 (single isomer, unassigned) [Example 99] |  |  | > 10 µM | < 10 µM | < 25 min | < 25 min |
| COc1ncnc(C2CC2)c1-c1ncc2cnn(Cc3ccc(-c4nc(C(F)(F)F)nn4C)c(F)c3)c2n1 [Example 57] |  |  | > 10 µM | > 10 µM | > 25 min | > 25 min |
| Cc1nn(Cc2ccc(-c3nc(C(F)(F)F)cn3C)cc2)c2nc(-c3ccccc3C(C)C)ncc12 [Example 25] |  |  | < 10 µM | < 10 µM | < 25 min | < 25 min |
| COCCOc1ncnc(C2CC2)c1-c1ncc2cnn(Cc3ccc(-n4nc(C(F)(F)F)cc4C)cc3)c2n1 [Example 43] |  |  | < 10 µM | > 10 µM | < 25 min | < 25 min |
| COc1ncnc(C2(C)CC2)c1-c1ncc2cnn(Cc3ccc(-n4nc(C(F)(F)F)cc4OC)cc3)c2n1 [Example 106] |  |  | < 10 µM | < 10 µM | > 25 min | > 25 min |
| COCCOc1ncnc(C)c1-c1ncc2cnn(Cc3ccc(-n4nc(C(F)(F)F)cc4C)cc3)c2n1 [Example 47] |  |  | > 10 µM | > 10 µM | < 25 min | < 25 min |
